# Experimental data: patent publication US20230192661A1, “1, 4, 5, 6-TETRAHYDROPYRIMIDINE-2-AMINE DERIVATIVE” (UBE Corporation, priority 2020, published 2023)
# Experiment: Transcellular transport test using Caco2 cell
# Format: in vitro ADME
# Settings: human, Caco-2; Caco2 monolayer, A-to-B, 10 μM compound, pH 7.4, 90 minutes
# Method: Caco2 cells (purchased from ATCC) were cultured in DMEM medium (Thermo Fisher Scientific, Inc., 11965) containing 10% FBS (Thermo Fisher Scientific, Inc., 10082) and 1% penicillin/streptomycin/amphotericin B (Thermo Fisher Scientific, Inc., 15240). A transcellular transport test was carried out in accordance with MultiScreen Caco2 Drug Transport Assembly in a 96-well system (Application Note AN1727EN, MultiScreen Caco-2 Assay System, Merck) by partially modifying it. The Caco2 cells were inoculated at a cell density of 4×10^4 cells/well onto a micropore polycarbonate insert of a 96-well plate (Merck, Millcell-96 culture insert plate 0.4 μm pore size, well membrane area=0.11 cm^2, PSHT004S5) and cultured for 20 to 22 days, and the resulting monolayer was used in the transcellular transport test. The medium of the inoculated cells was replaced with a fresh one every 3 to 4 days.
# Apical-to-basolateral (A-to-B) transport in the Caco2 cell monolayer membrane was performed by using HBSS (Thermo Fisher Scientific, Inc., 14025) medium (pH=7.4) containing 20 mM HEPES (Thermo Fisher Scientific, Inc., 15630), and adding HEPES-containing HBSS medium containing 10 μM compound (a 10 mM solution of the compound in DMSO was added at a 1000-fold dilution; final DMSO concentration: 0.1%) at 75 μL/well to the apical side and HEPES-containing HBSS medium supplemented with no compound at 250 μL/well to the basolateral side, followed by culture at 37° C. for 90 minutes. After culture, a 100 μL aliquot was collected from the basolateral side, and the concentration of a permeated compound was measured by LC-MS/MS under measurement conditions mentioned later. Papp (apparent permeability; cm/sec) was calculated from the determined concentration. Papp was determined according to the expression given below by calculating the slope (dA/dt; nmol/sec) of a straight line drawn between two points 0 minutes and zero amount of the compound in a graph plotted with an assay time (90 min) on the abscissa against the amount of the compound in the solution on the permeated side on the ordinate. As for an assay concentration, the concentration in the compound in the HEPES-containing HBSS medium containing the added compound was measured by UV-HPLC under measurement conditions mentioned later.
# Papp (cm/sec)=C0×S×(dA/dt)
# C0: assay concentration, S: plate membrane area=0.11 cm^2
row,Compound,"Papp A→B at 90 min, 10 μM"
1,"O=C(O)C[C@H](NC(=O)CNC(=O)c1cc(NC2=NCC(F)CN2)c2cn[nH]c2c1)c1cccc(OC(F)F)c1 (stereo partly drawn) [Example 37-(b), (3S)-3-(3-(difluoromethoxy)phenyl)-3-(2-(4-((5-fluoro-1,4,5,6-tetrahydropyrimidin-2-yl)amino)-1H-indazole-6-carboxamido)acetamido)propanoic acid]",> 10 nm/s
2,"O=C(O)C[C@H](NC(=O)CNC(=O)c1cc(NC2=NCC(F)CN2)c2cn[nH]c2c1)c1cccc(C(F)F)c1 (stereo partly drawn) [Example 38-(b), (3S)-3-(3-(difluoromethyl)phenyl)-3-(2-(4-((5-fluoro-1,4,5,6-tetrahydropyrimidin-2-yl)amino)-1H-indazole-6-carboxamido)acetamido)propanoic acid]",> 10 nm/s
3,"O=C(O)C[C@H](NC(=O)CNC(=O)c1cc(NC2=NCC(F)CN2)c2cn[nH]c2c1)c1cccc(C2CC2)c1 (stereo partly drawn) [Example 39-(b), (3S)-3-(3-cyclopropylphenyl)-3-(2-(4-((5-fluoro-1,4,5,6-tetrahydropyrimidin-2-yl)amino)-1H-indazole-6-carboxamido)acetamido)propanoic acid]",> 10 nm/s
4,"O=C(O)C[C@H](NC(=O)CNC(=O)c1cc(NC2=NCC(F)CN2)c2cn[nH]c2c1)c1cccc(OC2CC2)c1 (stereo partly drawn) [Example 40-(b), (3S)-3-(3-cyclopropoxyphenyl)-3-(2-(4-((5-fluoro-1,4,5,6-tetrahydropyrimidin-2-yl)amino)-1H-indazole-6-carboxamido)acetamido)propanoic acid]",> 10 nm/s
5,"O=C(O)C[C@H](NC(=O)CNC(=O)c1cc(NC2=NCC(F)CN2)c2cn[nH]c2c1)c1cccc(Cl)c1 (stereo partly drawn) [Example 41-(b), (3S)-3-(3-chlorophenyl)-3-(2-(4-((5-fluoro-1,4,5,6-tetrahydropyrimidin-2-yl)amino)-1H-indazole-6-carboxamido)acetamido)propanoic acid]",> 10 nm/s
6,"O=C(O)C[C@H](NC(=O)CNC(=O)c1cc(NC2=NCC(F)CN2)c2cn[nH]c2c1)c1cccc(Br)c1 (stereo partly drawn) [Example 42-(b), (3S)-3-(3-bromophenyl)-3-(2-(4-((5-fluoro-1,4,5,6-tetrahydropyrimidin-2-yl)amino)-1H-indazole-6-carboxamido)acetamido)propanoic acid]",> 10 nm/s
7,"O=C(O)C[C@H](NC(=O)CNC(=O)c1cc(NC2=NCC(F)CN2)c2cn[nH]c2c1)c1cccc(-n2cccn2)c1 (stereo partly drawn) [Example 43-(b), (3S)-3-(3-(1H-pyrazol-1-yl)phenyl)-3-(2-(4-((5-fluoro-1,4,5,6-tetrahydropyrimidin-2-yl)amino)-1H-indazole-6-carboxamido)acetamido)propanoic acid]",> 10 nm/s
8,"Cc1cc(C)n(-c2cccc([C@H](CC(=O)O)NC(=O)CNC(=O)c3cc(NC4=NCC(F)CN4)c4cn[nH]c4c3)c2)n1 (stereo partly drawn) [Example 44-(b), (3S)-3-(3-(3,5-dimethyl-1H-pyrazol-1-yl)phenyl)-3-(2-(4-((5-fluoro-1,4,5,6-tetrahydropyrimidin-2-yl)amino)-1H-indazole-6-carboxamido)acetamido)propanoic acid]",5 to 10 nm/s
9,"O=C(O)C[C@H](NC(=O)CNC(=O)c1cc(NC2=NCC(F)CN2)c2cn[nH]c2c1)c1cccc(N2CCOCC2)c1 (stereo partly drawn) [Example 45-(b), (3S)-3-(2-(4-((5-fluoro-1,4,5,6-tetrahydropyrimidin-2-yl)amino)-1H-indazole-6-carboxamido)acetamido)-3-(3-morpholinophenyl)propanoic acid]",5 to 10 nm/s
10,"O=C(O)C[C@H](NC(=O)CNC(=O)c1cc(NC2=NCC(F)CN2)c2cn[nH]c2c1)c1ccc(OC(F)F)cc1 (stereo partly drawn) [Example 46-(b), (3S)-3-(4-(difluoromethoxy)phenyl)-3-(2-(4-((5-fluoro-1,4,5,6-tetrahydropyrimidin-2-yl)amino)-1H-indazole-6-carboxamido)acetamido)propanoic acid]",> 10 nm/s
11,"O=C(O)C[C@H](NC(=O)CNC(=O)c1cc(NC2=NCC(F)CN2)c2cn[nH]c2c1)c1ccc(C(F)(F)F)cc1 (stereo partly drawn) [Example 47-(b), (3S)-3-(2-(4-((5-fluoro-1,4,5,6-tetrahydropyrimidin-2-yl)amino)-1H-indazole-6-carboxamido)acetamido)-3-(4-(trifluoromethyl)phenyl)propanoic acid]",> 10 nm/s
12,"O=C(O)C[C@H](NC(=O)CNC(=O)c1cc(NC2=NCC(F)CN2)c2c(F)n[nH]c2c1)c1cc(Cl)cc(C(F)(F)F)c1 (stereo partly drawn) [Example 48-(b), (3S)-3-(3-chloro-5-(trifluoromethyl)phenyl)-3-(2-(3-fluoro-4-((5-fluoro-1,4,5,6-tetrahydropyrimidin-2-yl)amino)-1H-indazole-6-carboxamido)acetamido) propanoic acid]",> 10 nm/s
13,"O=C(O)C[C@H](NC(=O)CNC(=O)c1cc(NC2=NCC(F)CN2)c2c(Cl)n[nH]c2c1)c1cc(Cl)cc(C(F)(F)F)c1 (stereo partly drawn) [Example 49-(b), (3S)-3-(2-(3-chloro-4-((5-fluoro-1,4,5,6-tetrahydropyrimidin-2-yl)amino)-1H-indazole-6-carboxamido)acetamido)-3-(3-chloro-5-(trifluoromethyl)phenyl)propanoic acid]",5 to 10 nm/s
14,"O=C(O)C[C@H](NC(=O)CNC(=O)c1cc(NC2=NCC(O)CN2)c2cn[nH]c2c1)c1cc(Cl)cc(C(F)(F)F)c1 (stereo partly drawn) [Example 50-(b), (3S)-3-(3-chloro-5-(trifluoromethyl)phenyl)-3-(2-(4-((5-hydroxy-1,4,5,6-tetrahydropyrimidin-2-yl)amino)-1H-indazole-6-carboxamido)acetamido)propanoic acid]",> 10 nm/s
15,"O=C(O)C[C@H](NC(=O)CNC(=O)c1cc(NC2=NCCCN2)c2cn[nH]c2c1)c1cc(Cl)cc(C(F)(F)F)c1 [Example 51-(b), (S)-3-(3-chloro-5-(trifluoromethyl)phenyl)-3-(2-(4-((1,4,5,6-tetrahydropyrimidin-2-yl)amino)-1H-indazole-6-carboxamido)acetamido)propanoic acid]",> 10 nm/s
16,"O=C(O)C[C@H](NC(=O)CNC(=O)c1cc(NC2=NCC(F)CN2)cc2[nH]ncc12)c1cc(Cl)cc(C(F)(F)F)c1 (stereo partly drawn) [Example 52-(b), (3S)-3-(3-chloro-5-(trifluoromethyl)phenyl)-3-(2-(6-((5-fluoro-1,4,5,6-tetrahydropyrimidin-2-yl)amino)-1H-indazole-4-carboxamido)acetamido)propanoic acid]",1 to 5 nm/s
17,"O=C(O)C[C@H](NC(=O)CNC(=O)c1cc(NC2=NCC(F)CN2)cc2[nH]ncc12)c1cc(Br)cc(C(F)(F)F)c1 (stereo partly drawn) [Example 53-(b), (3S)-3-(3-bromo-5-(trifluoromethyl)phenyl)-3-(2-(6-((5-fluoro-1,4,5,6-tetrahydropyrimidin-2-yl)amino)-1H-indazole-4-carboxamido)acetamido)propanoic acid]",1 to 5 nm/s
18,"O=C(O)C[C@H](NC(=O)CNC(=O)c1cc(NC2=NCC(F)CN2)cc2[nH]ncc12)c1cc(I)cc(C(F)(F)F)c1 (stereo partly drawn) [Example 54-(b), (3S)-3-(2-(6-((5-fluoro-1,4,5,6-tetrahydropyrimidin-2-yl)amino)-1H-indazole-4-carboxamido)acetamido)-3-(3-iodo-5-(trifluoromethyl)phenyl)propanoic acid]",1 to 5 nm/s
19,"O=C(O)C[C@H](NC(=O)CNC(=O)c1cc(NC2=NCC(F)CN2)cc2[nH]ncc12)c1ccc(F)c(C(F)(F)F)c1 (stereo partly drawn) [Example 55-(b), (3S)-3-(2-(6-((5-fluoro-1,4,5,6-tetrahydropyrimidin-2-yl)amino)-1H-indazole-4-carboxamido)acetamido)-3-(4-fluoro-3-(trifluoromethyl)phenyl)propanoic acid]",1 to 5 nm/s
20,"O=C(O)C[C@H](NC(=O)CNC(=O)c1cc(NC2=NCC(F)CN2)cc2[nH]ncc12)c1cccc(C(F)(F)F)c1 (stereo partly drawn) [Example 56-(b), (3S)-3-(2-(6-((5-fluoro-1,4,5,6-tetrahydropyrimidin-2-yl)amino)-1H-indazole-4-carboxamido)acetamido)-3-(3-(trifluoromethyl)phenyl)propanoic acid]",1 to 5 nm/s
